Assay results as given in patent US20260297542A1, “HERBICIDE RESISTANT PLANTS” (SYNGENTA CROP PROTECTION AG, priority 2023, published 2026).
Residue numbers refer to the chain shown, from its start.

Columns and labels:
Experiment in all cases: E. coli hemG growth inhibition by herbicide, AtPPO1 variant
Format in all cases: cell-based
Settings in all cases: read-out: percentage growth inhibition
[1] = target: T1, AtPPO1 F207Y (Arabidopsis thaliana, UniProt P55826, F207Y)
T1 construct: expressed in transfected cells; host or cells: E. coli BL21(DE3) hemG (hemG replaced by CmR), pET24a plasmid
T1 sequence (P55826 35-537 F207Y): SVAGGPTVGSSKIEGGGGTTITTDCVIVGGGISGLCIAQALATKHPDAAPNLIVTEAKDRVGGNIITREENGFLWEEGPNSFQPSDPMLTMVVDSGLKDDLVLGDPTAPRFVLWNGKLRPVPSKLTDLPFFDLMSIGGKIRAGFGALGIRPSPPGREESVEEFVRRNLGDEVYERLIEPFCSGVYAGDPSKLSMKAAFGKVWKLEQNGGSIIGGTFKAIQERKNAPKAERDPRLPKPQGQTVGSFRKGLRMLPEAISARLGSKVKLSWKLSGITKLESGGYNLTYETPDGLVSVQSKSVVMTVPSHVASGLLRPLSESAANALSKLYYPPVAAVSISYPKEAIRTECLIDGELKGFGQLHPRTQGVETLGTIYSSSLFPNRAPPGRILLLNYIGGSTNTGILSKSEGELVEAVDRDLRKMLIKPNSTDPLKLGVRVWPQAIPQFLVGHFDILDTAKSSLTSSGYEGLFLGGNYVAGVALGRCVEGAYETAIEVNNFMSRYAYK
Method in brief: (§1)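 Variant plasmids were transformed into hemG-null BL21(DE3) and precultured 24 h with hematin. Washed cells were diluted 1:100 into Terrific broth containing 0.1 mM IPTG and herbicide (6.25 ppm 0 or E; 0.78 ppm B) or DMSO. After 24 h at 37° C, OD600 gave percent inhibition.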

[2] = target: T2, AtPPO1 F214Y (Arabidopsis thaliana, UniProt P55826, F214Y)
T2 construct: expressed in transfected cells; host or cells: E. coli BL21(DE3) hemG (hemG replaced by CmR), pET24a plasmid
T2 sequence (P55826 35-537 F214Y): T1 sequence (P55826 35-537 F207Y) with Y173F, F180Y
Method in brief: as §1

[3] = target: T3, AtPPO1 S305L (Arabidopsis thaliana, UniProt P55826, S305L)
T3 construct: expressed in transfected cells; host or cells: E. coli BL21(DE3) hemG (pET24a, T7 promoter)
T3 sequence (P55826 35-537 S305L): T1 sequence (P55826 35-537 F207Y) with Y173F, S271L
Method in brief: as §1

[4] = target: T4, AtPPO1 Y361T (Arabidopsis thaliana, UniProt P55826, Y361T)
T4 construct: expressed in transfected cells; host or cells: E. coli BL21(DE3) hemG (pET24a, T7 promoter)
T4 sequence (P55826 35-537 Y361T): T1 sequence (P55826 35-537 F207Y) with Y173F, Y327T
Method in brief: as §1

| SMILES | inhibition at 6.25 ppm [1] | inhibition at 6.25 ppm [2] | inhibition at 6.25 ppm [3] | inhibition at 6.25 ppm [4] | inhibition at 0.78 ppm [1] | inhibition at 0.78 ppm [2] | inhibition at 0.78 ppm [3] | inhibition at 0.78 ppm [4] |
| --- | --- | --- | --- | --- | --- | --- | --- | --- |
| CCOC(=O)[C@]1(C)CC(c2cc(-n3c(=O)n(C)c(=S)n(C)c3=O)c(F)cc2Cl)=NO1 [Herbicide D, ethyl (5S)-3-[2-chloro-5-(3,5-dimethyl-2,6-dioxo-4-thioxo-1,3,5-triazinan-1-yl)-4-fluoro-phenyl]-5-methyl-4H-isoxazole-5-carboxylate] | 19% | 34% | 14% | 44% | – | – | – | – |
| C#CCN1C(=O)C(F)(F)Oc2cc(F)c(-n3c(=O)n(C)c(=S)n(C)c3=O)cc21 [Herbicide B, trifludimoxazin] | – | – | – | – | 29% | 26% | 26% | 37% |
| CC(C)N(C)S(=O)(=O)NC(=O)c1cc(-n2c(=O)cc(C(F)(F)F)n(C)c2=O)c(F)cc1Cl [Herbicide E, saflufenacil] | 66% | 63% | 39% | 37% | – | – | – | – |
